Here are results for one compound from US9636308B2, “High drug load buprenorphine microspheres and method of producing same” (Oakwood Laboratories LLC, priority 2013, dated 2017).

Each structure is given as a SMILES string.

The data set can be described thus: Solubility of buprenorphine in solvent systems by visual observation.

Description: DCM was used as the main solvent and BzOH as the co-solvent.

For `CO[C@@]12CC[C@@]3(C[C@@H]1[C@](C)(O)C(C)(C)C)[C@H]1Cc4ccc(O)c5c4[C@@]3(CCN1CC1CC1)[C@H]2O5.Cl` [Buprenorphine (salt form), Buprenorphine hydrochloride], the “Increase of solubility by addition of BzOH to DCM” value (DCM:BzOH 2:1 by weight versus DCM alone) is about 46 fold. The “Solubility” value is, setting by setting: (solvent DCM with benzyl alcohol co-solvent (33% by weight; 2:1 DCM:BzOH)) 0.083 g/g; (solvent DCM, no co-solvent) 0.0018 g/g.
